# According to patent publication US6649763B1, “Optically active quinoline carboxylic acid derivatives with 7-pyrrolidine substituents causing optical activity and a process for the preparation thereof” (Dong Wha Pharm. Ind. Co., Ltd., priority 1999, dated 2003):
# Tests used:
# Escherichia coli DC 0 = assay: Antibacterial activity in vitro (MIC, agar dilution); assay type: cell-based; settings: DC0, standard strain Escherichia coli DC 0, read-out: minimum inhibitory concentration (MIC)
# Experimental: (§1) The optically active quinoline carboxylic acid derivatives of the present invention were tested as to whether they could be useful as antibacterial compounds. In this regard, the compounds were measured for minimum inhibitory concentration (MIC: unit μg/ml) according to an agar dilution process (Hoechst 345) in which Muller-Hinton agars were diluted two fold. For comparison, ciprofloxacin and sparfloxacin were used as controls. Corresponding enantiomers and racemates of the compounds of interest were also used as comparative ones. Bacteria were inoculated at an amount of about 10^7 cfu/ml onto each agar. 18 hours after the inoculation at 37° C., the growth of the bacteria was observed. As to methicillin-resistant strains, their growth was observed 48 hours after the inoculation at […]. Hoechst standard strains were used as the test bacteria.
# Escherichia coli DC 2 = assay: as above; assay type: cell-based; settings: DC2, standard strain Escherichia coli DC 2, read-out: minimum inhibitory concentration (MIC)
# Experimental: as §1
# [1] = system: Pseudomonas aeruginosa 1771M; assay: as above; assay type: cell-based; settings: read-out: minimum inhibitory concentration (MIC)
# Experimental: as §1
# [2] = system: Staphylococcus aureus 121E; assay: as above; assay type: cell-based; settings: resistant strain Staphylococcus aureus 121E, read-out: minimum inhibitory concentration (MIC)
# Experimental: as §1
# [3] = system: Staphylococcus aureus 179; assay: as above; assay type: cell-based; settings: resistant strain Staphylococcus aureus 179, read-out: minimum inhibitory concentration (MIC)
# Experimental: as §1
# [4] = system: Staphylococcus aureus 208E; assay: as above; assay type: cell-based; settings: resistant strain Staphylococcus aureus 208E, read-out: minimum inhibitory concentration (MIC)
# Experimental: as §1
# [5] = system: Staphylococcus aureus 241; assay: as above; assay type: cell-based; settings: resistant strain Staphylococcus aureus 241, read-out: minimum inhibitory concentration (MIC)
# Experimental: as §1
# [6] = system: Staphylococcus aureus 256E; assay: as above; assay type: cell-based; settings: resistant strain Staphylococcus aureus 256E, read-out: minimum inhibitory concentration (MIC)
# Experimental: as §1
# [7] = system: Staphylococcus aureus 285; assay: as above; assay type: cell-based; settings: standard strain Staphylococcus aureus 285, read-out: minimum inhibitory concentration (MIC)
# Experimental: as §1
# [8] = system: Staphylococcus aureus 293; assay: as above; assay type: cell-based; settings: resistant strain Staphylococcus aureus 293, read-out: minimum inhibitory concentration (MIC)
# Experimental: as §1
# [9] = system: Staphylococcus aureus 303; assay: as above; assay type: cell-based; settings: resistant strain Staphylococcus aureus 303, read-out: minimum inhibitory concentration (MIC)
# Experimental: as §1
# [10] = system: Staphylococcus aureus 503; assay: as above; assay type: cell-based; settings: standard strain Staphylococcus aureus 503, read-out: minimum inhibitory concentration (MIC)
# Experimental: as §1
# [11] = system: Staphylococcus aureus 690E; assay: as above; assay type: cell-based; settings: resistant strain Staphylococcus aureus 690E, read-out: minimum inhibitory concentration (MIC)
# Experimental: as §1
# [12] = system: Staphylococcus aureus 692E; assay: as above; assay type: cell-based; settings: resistant strain Staphylococcus aureus 692E, read-out: minimum inhibitory concentration (MIC)
# Experimental: as §1
# [13] = system: Staphylococcus aureus 693E; assay: as above; assay type: cell-based; settings: resistant strain Staphylococcus aureus 693E, read-out: minimum inhibitory concentration (MIC)
# Experimental: as §1
# [14] = system: Staphylococcus aureus 88E; assay: as above; assay type: cell-based; settings: resistant strain Staphylococcus aureus 88E, read-out: minimum inhibitory concentration (MIC)
# Experimental: as §1
# [15] = system: Staphylococcus aureus SG511; assay: as above; assay type: cell-based; settings: standard strain Staphylococcus aureus SG511, read-out: minimum inhibitory concentration (MIC)
# Experimental: as §1
# [16] = system: Staphylococcus epidermidis 319; assay: as above; assay type: cell-based; settings: Staphylococcus epidermidis, 319, resistant strain Staphylococcus epidermidis 319, read-out: minimum inhibitory concentration (MIC)
# Experimental: as §1
# [17] = system: Staphylococcus epidermidis 329; assay: as above; assay type: cell-based; settings: Staphylococcus epidermidis, 329, resistant strain Staphylococcus epidermidis 329, read-out: minimum inhibitory concentration (MIC)
# Experimental: as §1
# [18] = system: Streptococus faecium MD 8b; assay: as above; assay type: cell-based; settings: standard strain Streptococus faecium MD 8b, read-out: minimum inhibitory concentration (MIC)
# Experimental: as §1
# [19] = system: Streptococus pyogenes 308A; assay: as above; assay type: cell-based; settings: standard strain Streptococus pyogenes 308A, read-out: minimum inhibitory concentration (MIC)
# Experimental: as §1
# [20] = system: Streptococus pyogenes 77A; assay: as above; assay type: cell-based; settings: standard strain Streptococus pyogenes 77A, read-out: minimum inhibitory concentration (MIC)
# Experimental: as §1
# Pharmacokinetic test = settings: for Cmax / half-life: SD, rat, in vivo, po, 40 mg/kg
# Experimental: After being starved for 16 hours, SD rats were orally administered at a dose of 40 mg/5 ml/kg with the compounds of interest and at a dose of 50 mg/5 ml/kg with the control. Immediately after being drawn at predetermined times from the eyeballs, blood was separated into plasma and other ingredients and quantitatively analyzed for pharmacokinetic parameters by use of high performance liquid chromatograph (HPLC).
# Enterobacter cloacae P99 = assay: Antibacterial activity in vitro (MIC, agar dilution); assay type: cell-based; settings: standard strain Enterobacter cloacae P99, read-out: minimum inhibitory concentration (MIC)
# Description: Corresponding enantiomers and racemates of the compounds of interest were also used as comparative ones. Bacteria were inoculated at an amount of about 10^7 cfu/ml onto each agar. […] Hoechst standard strains were used as the test bacteria.
# Phototoxicity test = assay type: in vivo; settings: CD-1 female mice, oral 50 mg/kg; for edema and erythema observed after UV exposure / increase in ear thickness compared with before the UV exposure: after 48 hours of the UV exposure
# Experimental: It is known that the presence of a halogen atom at the 8-position of the quinolone nuclei causes phototoxicity.
# After 16 hours of starvation, CD-1 female mice were orally administered with a dose of 50 mg/kg of the compounds and allowed to be exposed for 4.5 hours to a UVA light source. The mice were located 15 cm away from the light source. Whether the mice were damaged in their ears was adopted as a main factor for the phototoxicity and determined after 24 hour and 48 hour UV exposure. The edema which the mice suffered were examined by measuring the thickness changes of their ears with the aid of electronic calipers and calculating average values. Also, an observation was made as to whether the mice suffered from erythema.
# Escherichia coli = assay: Antibacterial activity in vitro, potency comparison; assay type: cell-based; settings: against Escherichia coli, a representative Gram-negative strain
# Experimental: as §1
# Gram-positive bacteria = assay: as above; assay type: cell-based; settings: against Gram-positive bacteria
# Experimental: as §1
# [21] = system: Staphylococcus aureus and Staphylococcus epidermis, both resistant to quinolone antibacterial agents; assay: as above; assay type: cell-based; settings: for times as potent in antibacterial activity as ciprofloxacin / times as potent in antibacterial activity as sparfloxacin: against resistant Staphylococcus aureus and Staphylococcus epidermis; for fold more potent antibacterial activity than its enantiomer / fold more potent antibacterial activity than its racemate: against resistant staphylcoccus aureus and staphylococcus epidermis (Table 2)
# Experimental: as §1
Structure (SMILES),MIC (Escherichia coli DC 0) [µg/mL],MIC (Escherichia coli DC 2) [µg/mL],MIC [1] [µg/mL],MIC [2] [µg/mL],MIC [3] [µg/mL],MIC [4] [µg/mL],MIC [5] [µg/mL],MIC [6] [µg/mL],MIC [7] [µg/mL],MIC [8] [µg/mL],MIC [9] [µg/mL],MIC [10] [µg/mL],MIC [11] [µg/mL],MIC [12] [µg/mL],MIC [13] [µg/mL],MIC [14] [µg/mL],MIC [15] [µg/mL],MIC [18] [µg/mL],MIC [19] [µg/mL],MIC [20] [µg/mL],further results
"O=C(O)c1cn(C2CC2)c2cc(N3CCNCC3)c(F)cc2c1=O [Ciprofloxacin, ciprofloxacin]",0.195,0.098,0.098,0.781,12.5,0.781,12.5,0.781,0.781,12.5,12.5,0.391,0.391,0.391,0.391,0.781,0.195,0.391,3.12,0.391,"MIC [16]: 100 µg/mL; MIC [17]: 50 µg/mL; Area Under Curve (Pharmacokinetic test; SD rats, oral, control at 50 mg/5 ml/kg): 12720 ng·h/mL"
"C[C@@H]1CN(c2c(F)c(N)c3c(=O)c(C(=O)O)cn(C4CC4)c3c2F)C[C@H](C)N1 [Sparfloxacin, sparfloxacin]",0.195,0.025,0.098,0.098,6.25,0.098,6.25,0.098,0.009,6.25,3.12,0.049,0.049,0.049,0.049,0.098,0.098,0.391,0.391,0.391,MIC [16]: 12.5 µg/mL; MIC [17]: 12.5 µg/mL; MIC (Enterobacter cloacae P99): 0.007 µg/mL; edema and erythema observed after UV exposure (Phototoxicity test): serious edema and erythema; increase in ear thickness compared with before the UV exposure (Phototoxicity test): 150%
"CO/N=C1\CN(c2nc3c(cc2F)c(=O)c(C(=O)O)cn3C2CC2)CC1(C)CN.Cl (single isomer, unassigned; (-)) [Example 9, (−)-7-(4-Aminomethyl-4-methyl-3-(Z)-methyloxyiminopyrrolidin-1-yl)-1-cyclopropyl-6-fluoro-4-oxo-1,4-dihydro[1,8]naphthyridine-3-carboxylic Acid Hydrochloride]",0.004,0.195,0.391,< 0.002,0.098,< 0.002,0.098,< 0.002,0.007,0.098,0.098,0.004,< 0.002,< 0.002,< 0.002,< 0.002,0.004,0.049,0.025,0.013,MIC (Enterobacter cloacae P99): 0.025 µg/mL; fold more potent antibacterial effect than ciprofloxacin (Escherichia coli): almost the same antibacterial potency; fold more potent antibacterial effect than sparfloxacin (Escherichia coli): almost the same antibacterial potency; fold higher antibacterial activity than ciprofloxacin (Gram-positive bacteria): 4-112 fold; fold higher antibacterial activity than sparfloxacin (Gram-positive bacteria): 4-30 fold; times as potent in antibacterial activity as ciprofloxacin [21]: 128-390 times; times as potent in antibacterial activity as sparfloxacin [21]: 24-64 times; fold more potent antibacterial activity than its enantiomer [21]: 8-32 fold; fold more potent antibacterial activity than its racemate [21]: 4 fold; Cmax (Pharmacokinetic test): 9060 ± 2040 ng/mL; half-life (Pharmacokinetic test): 4.5 h
"CO/N=C1\CN(c2c(F)c(N)c3c(=O)c(C(=O)O)cn(C4CC4)c3c2F)CC1(C)CN.Cl (single isomer, unassigned; (-)) [Example 14, (−)-5-Amino-7-(4-aminomethyl-4-methyl-3-(Z)-methyloxyiminopyrrolidin-1-yl)-1-cyclopropyl-6,8-difluoro-4-oxo-1,4-dihydro-3-quinolinecarboxylic Acid Hydrochloride]",0.004,< 0.002,0.195,< 0.002,0.013,< 0.002,0.013,< 0.002,< 0.002,0.013,0.013,< 0.002,< 0.002,< 0.002,< 0.002,< 0.002,< 0.002,0.013,0.004,< 0.002,"MIC [16]: 0.025 µg/mL; MIC [17]: 0.025 µg/mL; MIC (Enterobacter cloacae P99): < 0.002 µg/mL; fold more potent antibacterial effect than ciprofloxacin (Escherichia coli): 49 fold; fold more potent antibacterial effect than sparfloxacin (Escherichia coli): 12-49 fold; fold higher antibacterial activity than ciprofloxacin (Gram-positive bacteria): 30-781 fold; fold higher antibacterial activity than sparfloxacin (Gram-positive bacteria): 24-195 fold; times as potent in antibacterial activity as ciprofloxacin [21]: 129-962 times; times as potent in antibacterial activity as sparfloxacin [21]: 24-481 times; fold more potent antibacterial activity than its enantiomer [21]: 2-63 fold; fold more potent antibacterial activity than its racemate [21]: up to four fold more potent; Cmax (Pharmacokinetic test): 6670 ± 3330 ng/mL; half-life (Pharmacokinetic test): 6.94 h; Thickness of mice's ears after UV exposure, After 24 hr (Phototoxicity test; UVA light source): 21.6 ± 0.52; Thickness of mice's ears after UV exposure, After 48 hr (Phototoxicity test; UVA light source): 21.6 ± 0.52; edema and erythema observed after UV exposure (Phototoxicity test): no erythema was observed; increase in ear thickness compared with before the UV exposure (Phototoxicity test): 16.8%; Thickness of mice's ears, Before UV exposure (Phototoxicity test; baseline before UVA): 18.5 ± 0.76"
"CO/N=C1\CN(c2cc3c(cc2F)c(=O)c(C(=O)O)cn3C2CC2)CC1(C)CN.Cl (single isomer, unassigned; (-)) [Example 19, (−)-7-(4-Aminomethyl-4-methyl-3-(Z)-methyloxyiminopyrrolidin-1-yl)-1-cyclopropyl-6-fluoro-4-oxo-1,4-dihydro-3-quinolinecarboxylic Acid Hydrochloride]",0.007,0.195,0.195,0.007,0.195,0.007,0.195,0.007,0.007,0.195,0.195,0.007,0.004,0.004,0.007,0.007,0.004,0.049,0.049,0.013,MIC [16]: 0.391 µg/mL; MIC [17]: 0.391 µg/mL; MIC (Enterobacter cloacae P99): 0.025 µg/mL; fold more potent antibacterial activity than its enantiomer [21]: 12-32 fold; fold more potent antibacterial activity than its racemate [21]: Two-fold higher potency
